Test results as given in patent EP2371816A1, “Aminocyclohexenone, their preparation and use as medicament against oxidative stress” (ABIOGEN PHARMA S.p.A., priority 2010, dated 2011).

How the values were obtained:
[1] = tested on: cerebral oxidative stress induced in mice by doxorubicin; test: In vivo assay of cerebral oxidative stress induced in mice by doxorubicin; details: for Brain/BWi its own / CAT/pr its own / GPX/pr its own / GSH/pr its own / GST/pr its own / Prot. Hmg its own / Prot. Ox/pr its own / SOD/pr its own / Brain/BWi vehicle / CAT/pr vehicle / GPX/pr vehicle / GSH/pr vehicle / GST/pr vehicle / Prot. Hmg vehicle / Prot. Ox/pr vehicle / SOD/pr vehicle: % inhibition relative to variation due to doxorubicin alone, oxidized animals; for Brain/BWi its own / CAT/pr its own / GPX/pr its own / GSH/pr its own / GST/pr its own / Prot. Hmg its own / Prot. Ox/pr its own / SOD/pr its own: as function of its own control; for Brain/BWi vehicle / CAT/pr vehicle / GPX/pr vehicle / GSH/pr vehicle / GST/pr vehicle / Prot. Hmg vehicle / Prot. Ox/pr vehicle / SOD/pr vehicle: as function of vehicle; for Brain/BWi / CAT/pr / GPX/pr / GSH/pr / GST/pr / Prot. Hmg / Prot. Ox/pr / SOD/pr: % variation relative to the vehicle, 50 mg/kg IP x3 days (D = doxorubicin alone); for Brain/BWi / CAT/pr / GPX/pr / GSH/pr / GST/pr / Prot. Hmg / Prot. Ox/pr / SOD/pr / Mean % variation relative to the vehicle: healthy animals; for Mean % variation relative to the vehicle: 50 mg/kg IP days 0, 1 and 2, mean over all parameters, approximate safety index (D = doxorubicin alone); for overall percentage inhibition: with respect to Its own vehicle
Procedure: The assay was carried out on compounds (1) and (3)-(6) and on edaravone (E) as comparative compound.
10 mice were used for each treatment group. For each compound 50 mg/kg were administered intraperitoneally (IP) for three consecutive days (day 0, 1 and 2); half the animals (5) also received IP 16.7 mg/kg of doxorubicin immediately after the first treatment (day 0). On the day after the last administration (day 3) the animals were killed by neck dislocation and the brains were removed, weighed and frozen in liquid nitrogen.
For the analyses of oxidative stress, 100 mg/ml of brain homogenate was prepared in Hebe buffer (pH 7.4 EDTA/HEPES^(**)) containing a mixture of enzyme inhibitors (Leupeptin, Pepstatin, Aprotinin, BHA). • ^(*) Hypotonic Extraction Buffer • ^(**) 4-2-hydroxyethyl-1-piperazinyl-ethanesulphonic acid
The evaluation parameters were: • BrW/BWi: ratio between final brain weight and initial body weight (day 0); • Prot. Hmg: total proteins in the homogenate (BCA method, i.e. bicinchoninic acid); • Prot. Ox: oxidized proteins in the Hmg by means of a colorimetric method using […] (DNPH); • GSH: reduced glutathione in the supernatant (sn) of the Hmg, obtained after precipitation with metaphosphoric acid (MPA), by means of a colorimetric method using […] (DTNB); • CAT: catalase in the Hmg by a colorimetric method using potassium dichromate; • SOD: superoxide dismutase by a colorimetric method using SOD Reagent (xanthine, EDTA, nitroblue tetrazole, Na2CO3, BSA, i.e. bovine serum albumin); • GST: glutathione S-transferase in the supernatant by a colorimetric method using chlorodinitrobenzene (CDNB) and GSH; and • GPx: glutathione peroxidase in the supernatant after addition of GSH and tert butyl hydroperoxide (t-BuOOH), heating and precipitation with MPA; followed by GSH method with DTNB.
All the parameters, with the exclusion of Brain/BWi and Prot. Hmg, were normalized for total Hmg proteins (Table 3). The D value standard deviations and the % incidence relative to V are given in italics.
The mean % effect, on all the parameters simultaneously, of the triple treatment in the healthy animals, as mean percentage variation relative to the vehicle (table 4). This value is useful as an approximate safety index of the oxidative state of the brain, i.e. the capacity of the compounds of the invention not to alter cerebral homeostasis in healthy animals.
The effect of the tested compounds on the "oxidized" animals was given as % inhibition relative to the percentage variation due to doxorubicin alone. The effect of the compounds on the oxidized animals can be expressed both as a function of the values of the vehicle (healthy, vehicle only) and as a function of the value of its own control (healthy, compound only): • Vehicle: percentage [(Compound+D)/V]x100/[(V+D)/V]x100 • Its own: percentage [(Compound+D)/Compound]x100/[(V+D)/V]x100

[2] = mouse, in vivo
Procedure: The ability of the compounds of the invention to penetrate the brain was investigated by measuring their brain/plasma (B/P) concentration ratio in mice following intraperitoneal administration.
Female CD-1 mice were used (n=3 for each time period) and received the compounds of the invention by intraperitoneal administration, in 25 mg/kg doses in a 0.5% NaHCO3 buffer (pH 8.3). At predefined intervals following said administration, i.e. 5, 15, 30 and 60 minutes, the mice were killed and both plasma and total brain tissue were collected.
Specifically, after anaesthesia with ether, the animals were bled by blood withdrawal from the abdominal aorta then immediately decapitated. The blood samples were collected into plasma separator tubes containing Li-Heparin as anticoagulant and centrifuged. The resulting plasma was then stored at -20 °C. The brain was rapidly removed from the cranium and weighed, subsequently frozen and stored at -20 °C before treatment by homogenization and HPLC analysis.
The plasma was thawed and mixed with an equal volume of the extraction solution. This extraction solution was a mixture of aqueous and organic solvents whose composition had been previously determined by HPLC undertaken for each analyte.
1 ml of solution was then extracted by adding 20 µl of 70% HClO4 then centrifuged at 15,500g for 5 minutes and injected into the HPLC.
Each brain was thawed and homogenized with the extraction solution to provide a final composition of 4 ml/1g of tissue by means of an Ultra-Turrax blender and sonicated for 5 minutes. After centrifugation of the homogenate at 15,500g for 5 minutes, the resulting solution was treated with HClO4, as indicated for the plasma.
Specific chromatographic conditions had been developed for each analyte, the calibration curve being constructed for plasma and brain homogenate.

[3] = pH at the semi-neutralization point of titration (pKa); type: physicochemical; details: titration with 0.1 N NaOH or HCl
Procedure: The following equipment was used during the implementation of all the examples: • for melting point determination a Buchi B-540 instrument was used; • for pH determination at the semi-neutralization point of titration (pKa) a Mettler Toledo DL-50 instrument was used with a 0.1 N xNaOH or HCl solution; • the ^1H-NMR spectra were recorded at 300 MHz and the ^13C-NMR spectra were recorded at 75 MHz using a Varian Unity 300 instrument; • spectrophotometric measurements were carried out using a Lambda Perkin Elmer 15 UV/Vis spectrophotometer for the DPPH assay and a Wallac Victor 1420 multilabel counter spectrophotometer.

CC1(C)CC(=O)C=C(NCCN2CCCCC2)C1 [(1), 5,5-dimethyl-3-(2-(piperidin-1-yl)ethylamino)cyclohex-2-enone]
Brain/BWi its own [1]: -76.8%
CAT/pr its own [1]: -32.6%
GPX/pr its own [1]: -16.2%
GSH/pr its own [1]: -8.8%
GST/pr its own [1]: 5.5%
Prot. Hmg its own [1]: -16.9%
Prot. Ox/pr its own [1]: -95.9%
SOD/pr its own [1]: -9.1%
Brain/BWi vehicle [1]: -33.3%
CAT/pr vehicle [1]: 77.3%
GPX/pr vehicle [1]: 22.2%
GSH/pr vehicle [1]: -2.4%
GST/pr vehicle [1]: 16.5%
Prot. Hmg vehicle [1]: 22.9%
Prot. Ox/pr vehicle [1]: -82.6%
SOD/pr vehicle [1]: 29.4%
Brain/BWi [1]: -3.2%
CAT/pr [1]: -7.1%
GPX/pr [1]: -7.6%
GSH/pr [1]: -1.5%
GST/pr [1]: -2.3%
Prot. Hmg [1]: 5.3%
Prot. Ox/pr [1]: 1.4%
SOD/pr [1]: -5.9%
Mean % variation relative to the vehicle [1]: -4.3%
overall percentage inhibition [1]: greater than 40%
bioavailability at the target site / crossing of the blood-brain barrier [2]: particularly bioavailable, as well as able to cross the blood-brain barrier in effective amounts
Acid dissociation constants: pKa1 [3]: 2.82
Acid dissociation constants: pKa2 [3]: 8.64

O=C1C=C(NCCN2CCCCC2)CC(c2ccccc2)C1 (centres unmarked) [(3), 5-phenyl-3-(2-(piperidin-1-yl)ethylamino)cyclohex-2-enone]
Brain/BWi its own [1]: -30.4%
CAT/pr its own [1]: -48.5%
GPX/pr its own [1]: 23.2%
GSH/pr its own [1]: 0.0%
GST/pr its own [1]: 37.4%
Prot. Hmg its own [1]: -101.2%
Prot. Ox/pr its own [1]: -116.3%
SOD/pr its own [1]: 107.7%
Brain/BWi vehicle [1]: -76.8%
CAT/pr vehicle [1]: 3.0%
GPX/pr vehicle [1]: -20.2%
GSH/pr vehicle [1]: -7.2%
GST/pr vehicle [1]: -48.4%
Prot. Hmg vehicle [1]: -32.5%
Prot. Ox/pr vehicle [1]: -107.0%
SOD/pr vehicle [1]: 86.7%
Brain/BWi [1]: 1.0%
CAT/pr [1]: -9.2%
GPX/pr [1]: 2.4%
GSH/pr [1]: 0.4%
GST/pr [1]: 4.1%
Prot. Hmg [1]: 2.3%
Prot. Ox/pr [1]: -7.8%
SOD/pr [1]: 1.1%
Mean % variation relative to the vehicle [1]: -1.3%
overall percentage inhibition [1]: greater than 40%
bioavailability at the target site / crossing of the blood-brain barrier [2]: particularly bioavailable, as well as able to cross the blood-brain barrier in effective amounts
Acid dissociation constants: pKa1 [3]: 2.82
Acid dissociation constants: pKa2 [3]: 8.46

CC1(C)CC(=O)C=C(NN2CCCCC2)C1 [(6), 5,5-dimethyl-3-(piperidin-1-ylamino)cyclohex-2-enone]
Brain/BWi its own [1]: -18.8%
CAT/pr its own [1]: -28.8%
GPX/pr its own [1]: -100.0%
GSH/pr its own [1]: -72.8%
GST/pr its own [1]: -36.3%
Prot. Hmg its own [1]: -97.6%
Prot. Ox/pr its own [1]: 45.9%
SOD/pr its own [1]: -60.8%
Brain/BWi vehicle [1]: 10.1%
CAT/pr vehicle [1]: 6.8%
GPX/pr vehicle [1]: -34.3%
GSH/pr vehicle [1]: -10.4%
GST/pr vehicle [1]: -18.7%
Prot. Hmg vehicle [1]: -8.4%
Prot. Ox/pr vehicle [1]: 21.5%
SOD/pr vehicle [1]: -2.1%
Brain/BWi [1]: -2.5%
CAT/pr [1]: -6.4%
GPX/pr [1]: -8.7%
GSH/pr [1]: -9.6%
GST/pr [1]: -2.5%
Prot. Hmg [1]: 8.4%
Prot. Ox/pr [1]: -5.6%
SOD/pr [1]: -10.8%
Mean % variation relative to the vehicle [1]: -5.4%
overall percentage inhibition [1]: greater than 40%
bioavailability at the target site / crossing of the blood-brain barrier [2]: particularly bioavailable, as well as able to cross the blood-brain barrier in effective amounts
pKa ([3]; read-out: Acid dissociation constant: pKa): 2.62
